Assay [1] deals with human GABAA α5β2γ1 receptor (Homo sapiens (Human), UniProt P31644+Q8N1C3). Put plainly: Radioligand binding assay for γ1-containing GABAA subtypes, [3H]RO7239181 competition (α5β2γ1).
In assay [2] the target is human GABAA α2β2γ1 receptor (Homo sapiens (Human), UniProt P47869+Q8N1C3). Put plainly: Radioligand binding assay for γ1-containing GABAA subtypes, [3H]RO7239181 competition (α2β2γ1).
The target in assay [3] is human GABAA α1β3γ2 receptor (Homo sapiens (Human), UniProt P14867+P18507). Put plainly: Radioligand binding assay for γ2-containing GABAA subtypes, [3H]Flumazenil competition (α1β3γ2). The following applies: for γ2/γ1 Selectivity Ratio: Ki α1β3γ2 (nM)/Ki α2β2γ1 (nM); for LogSel: Log[Ki α1β3γ2 (nM)/Ki α2β2γ1 (nM)].
The target in assay [4] is α2β2γ1 GABAA receptor subtype (Homo sapiens (Human), UniProt P47869+Q8N1C3). Put plainly: Two-electrode voltage clamp electrophysiology in Xenopus oocytes expressing GABAA receptors (modulation of GABA EC20 current). It counts as cell-based. The following applies: for Efficacy (GABA)%: % modulation of GABA EC20 = 100*(Fold increase-1), α2β2γ1 oocytes, compound at approx. 30-fold Ki; for Fold increase h-GABA-A α2β2γ1 oocyte @ 30-fold Ki: Xenopus oocytes expressing α2β2γ1, compound at approx. 30-fold its Ki α2β2γ1, GABA EC20 current. A digest of the protocol:
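Each concentration was tested on ≥3 oocytes held at −80 mV at room temperature, recorded 3-5 days post-injection. A control and a test response to EC20 GABA (1.5 min each) were superimposed and their point-by-point ratio taken. Peak ratio reported as % modulation of GABA EC20 = 100×(fold increase−1).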
In general terms: Two-electrode voltage clamp holds a large cell at a set potential and records current.

Setting [5] is: Ki h-GABAA α2β2γ1, [3H]RO7239181 competition binding, human GABAA α2β2γ1.
Setting [6] is: Ki h-GABAA α2β2γ1, displacement of [3H]RO7239181, membranes of HEK293F cells expressing human receptors, means of two determinations.

This note sets out measurements from US12365687B2 (Hoffmann-La Roche Inc., priority 2021, dated 2025).

Consider `C[C@@H]1N=C(c2ncccc2F)c2c(ccc(C(F)(F)F)c2Cl)-n2cc(C(=O)N3CC(C)(O)C3)nc21` [Example 160, (3-hydroxy-3-methyl-azetidin-1-yl)-[(4S)-7-chloro-6-(3-fluoro-2-pyridyl)-4-methyl-8-(trifluoromethyl)-4H-imidazo[1,2-a][1,4]benzodiazepin-2-yl]methanone], for which affinity in assay [1] was put at a Ki of 19.2 nM. In addition, the inhibitory constant (Ki) in assay [2] (setting [5]) stood at 66.4 nM. In assay [2] (setting [6]), this compound displayed a Ki of 66.3 nM. Besides, in assay [3], the affinity, expressed as Ki, was 13300 nM; the “γ2/γ1 Selectivity Ratio” value amounted to 201.1; the LogSel is given as 2.30. For the same compound, in assay [4], the “Efficacy (GABA)%” value came to 177% and the “Fold increase h-GABA-A α2β2γ1 oocyte @ 30-fold Ki” value worked out at 2.77.

The compound `C[C@@H]1N=C(c2ncccc2F)c2c(ccc(C(F)(F)F)c2Cl)-n2cc(C(=O)NC[C@@H](C)O)nc21` [Example 157, (4S)-7-chloro-6-(3-fluoro-2-pyridyl)-4-methyl-N-[(2R)-2-hydroxypropyl]-8-(trifluoromethyl)-4H-imidazo[1,2-a][1,4]benzodiazepine-2-carboxamide] yielded an inhibition constant (Ki) in assay [1] of 13.4 nM. Besides, the inhibition constant (Ki) in assay [2] (setting [5]) was 60.1 nM. For the same compound, in assay [2] (setting [6]), the Ki was determined as 60 nM. In assay [3], affinity was put at a Ki of 11100 nM, the “γ2/γ1 Selectivity Ratio” value came to 185.8 and the LogSel is on record as 2.27. For the same compound, in assay [4], the “Efficacy (GABA)%” value stood at 191% and the “Fold increase h-GABA-A α2β2γ1 oocyte @ 30-fold Ki” value was found to be 2.91.

Compound `COC1CN(C(=O)c2nc3n(n2)-c2ccc(Cl)c(Cl)c2C(c2ncccc2F)=NC3)C1` [Example 62, [7,8-dichloro-6-(3-fluoro-2-pyridyl)-4H-[1,2,4]triazolo[1,5-a][1,4]benzodiazepin-2-yl]-(3-methoxyazetidin-1-yl)methanone] registered a Ki in assay [1] of 3.7 nM. The Ki in assay [2] (setting [5]) came out at 9 nM. The compound also displayed an inhibition constant (Ki) in assay [2] (setting [6]) of 9 nM. In addition, in assay [3], the inhibition constant (Ki) worked out at 773 nM, the “γ2/γ1 Selectivity Ratio” value amounted to 85.7 and the LogSel was 1.93. Besides, in assay [4], the “Efficacy (GABA)%” value is 93% and the “Fold increase h-GABA-A α2β2γ1 oocyte @ 30-fold Ki” value stood at 1.93.

In the case of `C[C@@H]1N=C(c2c(F)cccc2F)c2c(ccc(Cl)c2Cl)-n2nc(C(=O)NCC#N)nc21` [Example 56, (4S)-7,8-dichloro-N-(cyanomethyl)-6-(2,6-difluorophenyl)-4-methyl-4H-[1,2,4]triazolo[1,5-a][1,4]benzodiazepine-2-carboxamide], the Ki in assay [1] stood at 0.85 nM; in assay [2] (setting [5]), 4.6 nM; in assay [2] (setting [6]), 4.63 nM; in assay [3] it was 432 nM. For the same compound, the “γ2/γ1 Selectivity Ratio” value in assay [3] is 93.4. This compound yielded a LogSel in assay [3] of 1.97. In addition, the “Efficacy (GABA)%” value in assay [4] came out at 72%. The “Fold increase h-GABA-A α2β2γ1 oocyte @ 30-fold Ki” value in assay [4] was 1.72.

`[2H]C([2H])([2H])NC(=O)c1nc2n(n1)-c1ccc(Cl)c(Cl)c1C(c1c(F)cccc1F)=N[C@H]2C` [Example 20, (4S)-7,8-dichloro-6-(2,6-difluorophenyl)-4-methyl-N-(trideuteriomethyl)-4H-[1,2,4]triazolo[1,5-a][1,4]benzodiazepine-2-carboxamide]: the Ki in assay [1] is 0.89 nM; in assay [2] (setting [5]), 5.2 nM; in assay [2] (setting [6]), 5.24 nM; in assay [3] it was 593 nM. Also, the “γ2/γ1 Selectivity Ratio” value in assay [3] was determined as 113.1. Moreover, in assay [3], the LogSel was 2.05. The “Efficacy (GABA)%” value in assay [4] is listed as 78%. For the same compound, the “Fold increase h-GABA-A α2β2γ1 oocyte @ 30-fold Ki” value in assay [4] is given as 1.78.

With `C[C@@H]1N=C(c2c(F)cccc2F)c2c(ccc(C(F)(F)F)c2Cl)-n2nc(C(=O)NC[C@@H](C)O)nc21` [Example 105, (4S)-7-chloro-6-(2,6-difluorophenyl)-N-[(2R)-2-hydroxypropyl]-4-methyl-8-(trifluoromethyl)-4H-[1,2,4]triazolo[1,5-a][1,4]benzodiazepine-2-carboxamide], in assay [1], the inhibition constant (Ki) was determined as 5.05 nM. In addition, the Ki in assay [2] (setting [5]) was 13.9 nM. This compound had an inhibition constant (Ki) in assay [2] (setting [6]) of 13.9 nM. For the same compound, in assay [3], the inhibition constant (Ki) worked out at 5130 nM, the “γ2/γ1 Selectivity Ratio” value is 368.4 and the LogSel is reported as 2.57. Further, in assay [4], the “Efficacy (GABA)%” value is 98% and the “Fold increase h-GABA-A α2β2γ1 oocyte @ 30-fold Ki” value came to 1.98.

As a reminder, the Ki is the equilibrium dissociation constant of an inhibitor or competing ligand from its target.
